Where a name gives a salt, the structure may show the parent alone.

As usually defined, the IC50 is the concentration that inhibits the measured activity by half.

This experiment deals with T1, IRAK4 (Homo sapiens, UniProt Q9NWZ3).
T1 sequence (Q9NWZ3 1-460): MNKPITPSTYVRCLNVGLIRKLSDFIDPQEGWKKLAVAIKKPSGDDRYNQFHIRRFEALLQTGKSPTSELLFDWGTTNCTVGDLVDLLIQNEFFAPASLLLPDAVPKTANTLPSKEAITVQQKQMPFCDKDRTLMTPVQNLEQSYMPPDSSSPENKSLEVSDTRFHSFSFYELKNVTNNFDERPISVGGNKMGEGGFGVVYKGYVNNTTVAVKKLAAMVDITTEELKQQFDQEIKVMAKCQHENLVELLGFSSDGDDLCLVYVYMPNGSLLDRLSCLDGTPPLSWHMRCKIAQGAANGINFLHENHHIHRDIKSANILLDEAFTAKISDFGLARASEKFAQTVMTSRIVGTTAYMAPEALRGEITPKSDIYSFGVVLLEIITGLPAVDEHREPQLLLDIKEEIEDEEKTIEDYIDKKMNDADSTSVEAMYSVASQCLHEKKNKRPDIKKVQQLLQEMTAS
Description: IRAK4 Inhibition Assay. The note with it: ATP 500 μM; fluoresceinated peptide 1.5 μM; IRAK4 0.6 nM; 60 min room temperature; Caliper LABCHIP. It is filed as biochemical. As to the method:
The assays were performed in U-bottom 384-well plates. The final assay volume was 30 μL prepared from 15 μL additions of enzyme and substrates (fluoresceinated peptide and ATP) and test compounds in assay buffer (20 mM HEPES pH 7.2, 10 mM MgCl2, 0.015% Brij 35 and 4 mM DTT). The reaction was initiated by the combination of IRAK4 with substrates and test compounds. The reaction mixture was incubated at room temperature for 60 min. and terminated by adding 45 μL of 35 mM EDTA to each sample. The reaction mixture was analyzed on the Caliper LABCHIP® 3000 (Caliper, Hopkinton, MA) by electrophoretic separation of the fluorescent substrate and phosphorylated product. Inhibition data were calculated by comparison to no enzyme control reactions for 100% inhibition and vehicle-only reactions for 0% inhibition. The final concentrations of reagents in the assays are ATP, 500 μM; FL-IPTSPITTTYFFFKKK peptide 1.5 μM; IRAK4, 0.6 nM; and DMSO, 1.6%.

For the molecule `CC(C)Nc1c(C(=O)NC2CCCOC2)cnc2c1[nH]c1cc(C#N)ccc12` (stereo not drawn) [Example 6, 7-cyano-4-(isopropylamino)-N-(tetrahydro-2H-pyran-3-yl)-5H-pyrido[3,2-b]indole-3-carboxamide], the IC50 is 37 nM.

`CC(C)Nc1c(C(=O)NCC2(CO)COC2)cnc2c1[nH]c1cc(C#N)ccc12` [Example 7, 7-cyano-N-((3-(hydroxymethyl)oxetan-3-yl)methyl)-4-(isopropylamino)-5H-pyrido[3,2-b]indole-3-carboxamide]: the half-maximal inhibitory concentration (IC50) was 170 nM.

As to `CC(C)Nc1c(C(=O)NCC2(CO)CC2)cnc2c1[nH]c1cc(C#N)ccc12` [Example 8, 7-cyano-N-((1-(hydroxymethyl)cyclopropyl)methyl)-4-(isopropylamino)-5H-pyrido[3,2-b]indole-3-carboxamide], the half-maximal inhibitory concentration (IC50) stood at 330 nM.

In the case of `CC(C)Nc1c(C(=O)NCC(C)(C)CO)cnc2c1[nH]c1cc(C#N)ccc12` [Example 9, 7-cyano-N-(3-hydroxy-2,2-dimethylpropyl)-4-(isopropylamino)-5H-pyrido[3,2-b]indole-3-carboxamide], the IC50 came out at 330 nM.

Turning to `CC(C)Nc1c(C(=O)NC2CCOCC2)cnc2c1[nH]c1cc(C#N)ccc12` [Example 11, 7-cyano-4-(isopropylamino)-N-(tetrahydro-2H-pyran-4-yl)-5H-pyrido[3,2-b]indole-3-carboxamide], the IC50 is 27 nM.

With `CC(C)Nc1c(C(=O)NC(CCO)C2CC2)cnc2c1[nH]c1cc(C#N)ccc12` (stereo not drawn) [Example 16, 7-cyano-N-(1-cyclopropyl-3-hydroxypropyl)-4-(isopropylamino)-5H-pyrido[3,2-b]indole-3-carboxamide], the IC50 turned out to be 310 nM.

On to `CC(C)Nc1c(C(=O)NC2CCNCC2)cnc2c1[nH]c1cc(C#N)ccc12` [Example 19, 7-cyano (isopropylamino)-N-(piperidin-4-yl)-5H-pyrido[3,2-b]indole-3-carboxamide], for which the 50% inhibitory concentration (IC50) worked out at 20 nM.

With `CC(C)Nc1c(C(=O)N[C@H]2C[C@@H](O)C2)cnc2c1[nH]c1cc(C#N)ccc12` [Example 24, 7-cyano-N-((1s,3s)-3-hydroxycyclobutyl)-4-(isopropylamino)-5H-pyrido[3,2-b]indole-3-carboxamide], the IC50 is 120 nM.

Regarding `CC(C)(O)CCNC(=O)c1cnc2c([nH]c3cc(C#N)ccc32)c1N[C@@H]1CCOC1` [Example 26, (R)-7-cyano-N-(3-hydroxy-3-methylbutyl)-4-((tetrahydrofuran-3-yl)amino)-5H-pyrido[3,2-b] indole-3-carboxamide], the IC50 was determined as 33 nM.

For `CC(C)(O)CCNC(=O)c1cnc2c([nH]c3cc(C#N)ccc32)c1N[C@H]1CCOC1` [Example 28, (S)-7-cyano-N-(3-hydroxy-3-methylbutyl)-4-((tetrahydrofuran-3-yl)amino)-5H-pyrido[3,2-b]indole-3-carboxamide], the IC50 was found to be 48 nM.

Turning to `C[C@H](Nc1c(C(=O)NCCC(C)(C)O)cnc2c1[nH]c1cc(C#N)ccc12)C1CC1` [Example 29, (S)-7-cyano-4-((1-cyclopropylethyl)amino)-N-(3-hydroxy-3-methylbutyl)-5H-pyrido[3,2-b]indole-3-carboxamide], the IC50 was found to be 11 nM.

As for `CC(C)(O)CCNC(=O)c1cnc2c([nH]c3cc(C#N)ccc32)c1NCC1CC1` [Example 33, 7-cyano-4-((cyclopropylmethyl)amino)-N-(3-hydroxy-3-methylbutyl)-5H-pyrido[3,2-b] indole-3-carboxamide], the IC50 came out at 30.8 nM.

In the case of `CC(C)(O)CCNC(=O)c1cnc2c([nH]c3cc(C#N)ccc32)c1NCC(F)(F)F` [Example 37, 7-cyano-N-(3-hydroxy-3-methylbutyl)-4-((2,2,2-trifluoroethyl)amino)-5H-pyrido[3,2-b]indole-3-carboxamide], the IC50 was found to be 14 nM.

For `CC(C)(O)CCNC(=O)c1cnc2c([nH]c3cc(C#N)ccc32)c1NC1COC1` [Example 41, 7-cyano-N-(3-hydroxy-3-methylbutyl) (oxetan-3-ylamino)-5H-pyrido[3,2-b]indole-3-carboxamide], the IC50 came out at 9.2 nM.

In the case of `N#Cc1ccc2c(c1)[nH]c1c(NC3COC3)c(C(=O)NCCC(F)(F)F)cnc12` [Example 42, 7-cyano-4-(oxetanylamino)-N-(3,3,3-trifluoropropyl)-5H-pyrido[3,2-b]indole-3-carboxamide], the IC50 was 24 nM.

As to `N#Cc1ccc2c(c1)[nH]c1c(NC3CC3)c(C(=O)N[C@H]3C[C@H](O)C3)cnc12` [Example 45, 7-cyano (cyclopropylamino)-N-((1R,3R)-3-hydroxycyclobutyl)-5H-pyrido[3,2-b]indole carboxamide], the half-maximal inhibitory concentration (IC50) amounted to 33 nM.

As to `CC(C)Nc1c(C(=O)N[C@H]2C[C@H](N)C2)cnc2c1[nH]c1cc(C#N)ccc12` [Example 47, N-((1R,3R)-3-aminocyclobutyl)-7-cyano (isopropylamino)-5H-pyrido[3,2-b]indole-3-carboxamide], the IC50 came to 40 nM.

For `CC(C)Nc1c(C(=O)NCCC(C)(C)O)cnc2c1[nH]c1cc(C(N)=O)ccc12` [Example 48, N3-(3-hydroxy-3-methylbutyl)-4-(isopropylamino)-5H-pyrido[3,2-b]indole-3,7-dicarboxamide], the IC50 amounted to 240 nM.

As for `CC(=O)N[C@H]1C[C@H](NC(=O)c2cnc3c([nH]c4cc(C#N)ccc43)c2NC(C)C)C1` [Example 49, N-((1R,3R)-3-acetamidocyclobutyl)-7-cyano-4-(isopropylamino)-5H-pyrido[3,2-b]indole-3-carboxamide], the IC50 is 22 nM.

Take `COC(=O)N[C@H]1C[C@H](NC(=O)c2cnc3c([nH]c4cc(C#N)ccc43)c2NC(C)C)C1` [Example 50, methyl ((1R,3R)-3-(7-cyano-4-(isopropylamino)-5H-pyrido[3,2-b]indole-3-carboxamido)cyclobutyl)carbamate]: the IC50 came out at 33 nM.

In the case of `CC(C)Nc1c(C(=O)NCCC(C)(C)N)cnc2c1[nH]c1cc(C#N)ccc12` [Example 52, N-(3-amino-3-methylbutyl)-7-cyano-4-(isopropylamino)-5H-pyrido[3,2-b]indole-3-carboxamide], the IC50 was found to be 3.3 nM.

For `CCNc1c(C(=O)NCCC2CCCNC2)cnc2c1[nH]c1cc(C#N)ccc12` (stereo not drawn) [Example 55, 7-cyano-4-(ethylamino)-N-(2-(piperidin-3-yl)ethyl)-5H-pyrido[3,2-b]indole-3-carboxamide], the half-inhibitory concentration (IC50) was determined as 2.8 nM.

Regarding `COc1ccc(CNc2c(C(=O)NCCC(C)(C)O)cnc3c2[nH]c2cc(C#N)ccc23)cc1OC` [Example 56, 7-cyano-4-((3,4-dimethoxybenzyl)amino)-N-(3-hydroxy-3-methylbutyl)-5H-pyrido[3,2-b]indole-3-carboxamide], the IC50 stood at 510 nM.

Consider `CCNc1c(C(=O)NCCC2CCCCN2)cnc2c1[nH]c1cc(C#N)ccc12` (stereo not drawn) [Example 58, 7-cyano-4-(ethylamino)-N-(2-(piperidin-2-yl)ethyl)-5H-pyrido[3,2-b]indole-3-carboxamide], for which the concentration for half-maximal inhibition (IC50) worked out at 24 nM.

Turning to `CC(C)(O)[C@H](F)CNC(=O)c1cnc2c([nH]c3cc(C#N)ccc32)c1NC1CCN(S(C)(=O)=O)CC1` [Example 64, (R)-7-cyano-N-(2-fluoro-3-hydroxy-3-methylbutyl)-4-((1-(methylsulfonyl)piperidin-4-yl)amino)-5H-pyrido[3,2-b]indole-3-carboxamide], the IC50 is 53 nM.

With `CC(C)Nc1c(C(=O)NCCc2nnn[nH]2)cnc2c1[nH]c1cc(C#N)ccc12` [Example 65, N-(2-(1H-tetrazol-5-yl)ethyl)-7-cyano-4-(isopropylamino)-5H-pyrido[3,2-b]indole-3-carboxamide], the IC50 came to 100 nM.

Take `CC(C)Nc1c(C(=O)NC[C@@H](F)C(C)(C)O)cnc2c1[nH]c1cc(-c3cn[nH]c3)ccc12` [Example 67, (R)—N-(2-fluoro-3-hydroxy-3-methylbutyl)-4-(isopropylamino)-7-(1H-pyrazol-4-yl)-5H-pyrido[3,2-b]indole-3-carboxamide]: the concentration for half-maximal inhibition (IC50) was found to be 30 nM.

As for `CC(C)Nc1c(C(=O)NC[C@@H](F)C(C)(C)O)cnc2c1[nH]c1cc(-c3ccc(=O)[nH]c3)ccc12` [Example 68, (R)—N-(2-fluoro-3-hydroxymethylbutyl)-4-(isopropylamino)-7-(6-oxo-1,6-dihydropyridin-3-yl)-5H-pyrido[3,2-b]indole-3-carboxamide], the IC50 is 580 nM.

Consider `CC(C)Nc1c(C(=O)NC[C@@H](F)C(C)(C)O)cnc2c1[nH]c1cc(C#N)cnc12` [Example 69, (R)-7-cyano-N-(2-fluoro-3-hydroxy-3-methylbutyl)-4-(isopropylamino)-5H-pyrrolo [3,2-b:4,5-b′]dipyridine-3-carboxamide], for which the IC50 is 540 nM.

In the case of `CC(C)Cc1nc(-c2cnc3c([nH]c4cc(C#N)ccc43)c2NC(C)C)n[nH]1` [Example 70, 3-(5-isobutyl-1H-1,2,4-triazol-3-yl)-4-(isopropylamino)-5H-pyrido[3,2-b]indole-7-carbonitrile, TFA], the IC50 was found to be 1700 nM.

Source of the values: patent publication US12421230B2, “Tricyclic heteroaryl compounds useful as IRAK4 inhibitors” (BRISTOL-MYERS SQUIBB COMPANY, priority 2020, dated 2025).
